Starred links: 1 amine or outer side, 2 acyl side, 3 side chain; linkers in the order of their positions; H or OH if unused. Non-standard residues stand in square brackets, D forms with d. Residues, ends and D or L forms follow the SMILES beside them. Groups on a side chain read outwards from the residue. *: point of attachment. Phe(4-CH2NH2) = NCc1ccc(C[C@H](N)C(=O)O)cc1; C18 diacid = O=C(O)CCCCCCCCCCCCCCCCC(=O)*; C16 diacid = O=C(O)CCCCCCCCCCCCCCC(=O)*; γGlu = O=C(O)[C@H](CCC(=O)[*:2])N[*:1]; Met(O2) = CS(=O)(=O)CC[C@H](N)C(=O)O; αMeD = C[C@](N)(CC(=O)O)C(=O)O; αMeL = CC(C)C[C@](C)(N)C(=O)O; AEEA = NCCOCCOCC(=O)O; Aib = CC(C)(N)C(=O)O

One experiment deals with T1, human GCGR (Homo sapiens, UniProt P47871).
T1 construct: expressed in transfected cells; kept under Blasticidin and Hygromycin selection
Nature of the experiment: cAMP activity assay, cells expressing human GCGR. It is filed as cell-based. The following applies: for EC50: cAMP production, cells expressing human GCGR, assay buffer with or without 20% human serum (not stated which), read-out: GCGR EC50 human; for hGCGR/hGLP1R (hTone): ratio of human GCGR EC50 to human GLP1R EC50. In a few lines:
(§1)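 cAMP production in human GLP1R- or GCGR-expressing cells was read by luminescence after overnight dark incubation at room temperature. Peptides were given as 10-point DMSO dilution series, with native GLP-1 and glucagon as references. Four-parameter logistic fitting gave EC50.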
A general note: Cyclic AMP is a second messenger, typically raised through Gs and lowered through Gi signalling.

Another experiment addresses T2, human GLP1R (Homo sapiens, UniProt P43220).
T2 construct: expressed in transfected cells; kept under Blasticidin and Hygromycin selection
In words: cAMP activity assay, cells expressing human GLP1R. It is filed as cell-based. The following applies: cAMP production, assay buffer with or without 20% human serum (not stated which). In a few lines:
as §1

T2 sequence (P43220 24-463): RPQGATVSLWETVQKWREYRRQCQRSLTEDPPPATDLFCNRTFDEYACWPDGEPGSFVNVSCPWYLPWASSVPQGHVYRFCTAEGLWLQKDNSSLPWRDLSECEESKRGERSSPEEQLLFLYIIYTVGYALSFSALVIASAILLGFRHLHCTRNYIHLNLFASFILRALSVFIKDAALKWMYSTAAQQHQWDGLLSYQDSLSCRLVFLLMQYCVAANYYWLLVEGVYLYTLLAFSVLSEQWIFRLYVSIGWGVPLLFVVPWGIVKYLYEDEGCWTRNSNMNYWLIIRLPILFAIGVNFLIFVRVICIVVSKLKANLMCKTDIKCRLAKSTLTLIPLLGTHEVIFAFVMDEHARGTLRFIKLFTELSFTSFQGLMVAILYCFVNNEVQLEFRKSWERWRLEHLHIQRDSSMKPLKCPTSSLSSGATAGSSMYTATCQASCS
T1 sequence (P47871 26-477): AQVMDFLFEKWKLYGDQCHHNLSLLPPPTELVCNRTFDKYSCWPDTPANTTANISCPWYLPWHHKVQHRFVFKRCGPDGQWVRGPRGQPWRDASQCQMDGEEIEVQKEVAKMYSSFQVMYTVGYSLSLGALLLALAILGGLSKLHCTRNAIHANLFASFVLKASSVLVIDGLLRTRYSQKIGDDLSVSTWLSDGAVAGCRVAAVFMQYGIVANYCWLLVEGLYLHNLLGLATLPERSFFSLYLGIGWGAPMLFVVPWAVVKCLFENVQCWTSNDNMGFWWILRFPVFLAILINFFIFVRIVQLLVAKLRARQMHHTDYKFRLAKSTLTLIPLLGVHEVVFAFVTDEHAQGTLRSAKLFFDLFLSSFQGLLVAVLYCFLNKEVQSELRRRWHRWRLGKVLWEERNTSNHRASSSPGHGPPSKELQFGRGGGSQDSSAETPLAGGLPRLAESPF

In the case of `CC(C)C[C@H](NC(=O)[C@H](Cc1ccc(O)cc1)NC(=O)[C@H](CCCCN)NC(=O)[C@H](CO)NC(=O)[C@H](Cc1ccc(O)cc1)NC(=O)[C@H](CC(=O)O)NC(=O)[C@H](CO)NC(=O)[C@@H](NC(=O)[C@H](Cc1ccccc1)NC(=O)[C@@H](NC(=O)CNC(=O)[C@H](CCC(N)=O)NC(=O)[C@@H](CO)NC(=O)[C@@H](N)Cc1c[nH]cn1)[C@@H](C)O)[C@@H](C)O)C(=O)N[C@@H](CC(=O)O)C(=O)N[C@@H](C)C(=O)N[C@@H](CCCNC(=N)N)C(=O)N[C@@H](C)C(=O)N[C@@H](C)C(=O)N[C@@H](Cc1ccc(CNC(=O)COCCOCCNC(=O)COCCOCCNC(=O)CC[C@H](NC(=O)CCCCCCCCCCCCCCC(=O)O)C(=O)O)cc1)C(=O)N[C@@H](CC(=O)O)C(=O)N[C@@H](Cc1ccccc1)C(=O)N[C@H](C(=O)N[C@@H](CCC(N)=O)C(=O)N[C@@H](Cc1c[nH]c2ccccc12)C(=O)N[C@@H](CC(C)C)C(=O)N[C@@H](CC(C)C)C(=O)N[C@@H](CC(=O)O)C(=O)N[C@H](C(N)=O)[C@@H](C)O)C(C)C` [compound 22] (H-H[dS]QGTFTSDYSKYLDARAA[Phe(4-CH2NH2)]([AEEA-AEEA-γGlu-C16 diacid])DFVQWLLDT-NH2), at human GCGR, the EC50 came out at 0.02 nM and the “hGCGR/hGLP1R (hTone)” value worked out at 0.08. Besides, the 50% effective concentration (EC50) at human GLP1R was determined as 0.29 nM.

Take `CC(C)C[C@H](NC(=O)[C@H](Cc1ccc(O)cc1)NC(=O)[C@H](CCCCN)NC(=O)[C@H](CO)NC(=O)[C@H](Cc1ccc(CNC(=O)COCCOCCNC(=O)COCCOCCNC(=O)CC[C@H](NC(=O)CCCCCCCCCCCCCCC(=O)O)C(=O)O)cc1)NC(=O)[C@H](CC(=O)O)NC(=O)[C@H](CO)NC(=O)[C@@H](NC(=O)[C@H](Cc1ccccc1)NC(=O)[C@@H](NC(=O)CNC(=O)[C@H](CCC(N)=O)NC(=O)C(C)(C)NC(=O)[C@@H](N)Cc1c[nH]cn1)[C@@H](C)O)[C@@H](C)O)C(=O)N[C@@H](CC(=O)O)C(=O)N[C@@H](CCC(=O)O)C(=O)N[C@@H](CCCNC(=N)N)C(=O)N[C@@H](C)C(=O)N[C@@H](C)C(=O)N[C@@H](CCC(N)=O)C(=O)N[C@@H](CC(=O)O)C(=O)N[C@@H](Cc1ccccc1)C(=O)N[C@H](C(=O)N[C@@H](CCC(N)=O)C(=O)N[C@@H](Cc1c[nH]c2ccccc12)C(=O)N[C@@H](CC(C)C)C(=O)N[C@@H](CC(C)C)C(=O)N[C@@H](CCCCN)C(=O)N[C@H](C(N)=O)[C@@H](C)O)C(C)C` [compound 8] (H-H[Aib]QGTFTSD[Phe(4-CH2NH2)]([AEEA-AEEA-γGlu-C16 diacid])SKYLDERAAQDFVQWLLKT-NH2): the figures for the 50% effective concentration (EC50) on human GCGR and on human GLP1R were 0.42 nM and 0.03 nM, respectively. In addition, the “hGCGR/hGLP1R (hTone)” value on human GCGR was 15.26.

Take `CC(C)C[C@H](NC(=O)[C@H](Cc1ccc(O)cc1)NC(=O)[C@H](CCCCN)NC(=O)[C@H](CO)NC(=O)[C@H](Cc1ccc(O)cc1)NC(=O)[C@H](CC(=O)O)NC(=O)[C@H](CO)NC(=O)[C@@H](NC(=O)[C@H](Cc1ccccc1)NC(=O)[C@@H](NC(=O)CNC(=O)[C@H](CCC(N)=O)NC(=O)C(C)(C)NC(=O)[C@@H](N)Cc1c[nH]cn1)[C@@H](C)O)[C@@H](C)O)C(=O)N[C@@H](CC(=O)O)C(=O)N[C@@H](C)C(=O)N[C@@H](CCCNC(=N)N)C(=O)N[C@@H](C)C(=O)N[C@@H](C)C(=O)N[C@@H](CCC(N)=O)C(=O)N[C@@H](CC(=O)O)C(=O)N[C@@H](Cc1ccccc1)C(=O)N[C@H](C(=O)N[C@@H](CCC(N)=O)C(=O)N[C@@H](Cc1c[nH]c2ccccc12)C(=O)N[C@@H](CC(C)C)C(=O)N[C@@H](CCS(C)(=O)=O)C(=O)N[C@@H](Cc1ccc(CNC(=O)COCCOCCNC(=O)COCCOCCNC(=O)CC[C@H](NC(=O)CCCCCCCCCCCCCCCCC(=O)O)C(=O)O)cc1)C(=O)N[C@H](C(N)=O)[C@@H](C)O)C(C)C` [compound 77] (H-H[Aib]QGTFTSDYSKYLDARAAQDFVQWL[Met(O2)][Phe(4-CH2NH2)]([AEEA-AEEA-γGlu-C18 diacid])T-NH2; N-terminus assumed): the EC50 at human GCGR worked out at 1.09 nM; on human GLP1R, 0.47 nM. Also, the “hGCGR/hGLP1R (hTone)” value at human GCGR was found to be 2.3.

For the compound `CC(C)C[C@H](NC(=O)[C@H](Cc1ccc(O)cc1)NC(=O)[C@H](CCCCN)NC(=O)[C@H](CO)NC(=O)[C@H](Cc1ccc(O)cc1)NC(=O)[C@H](CC(=O)O)NC(=O)[C@H](CO)NC(=O)[C@@H](NC(=O)[C@H](Cc1ccccc1)NC(=O)[C@@H](NC(=O)CNC(=O)[C@H](CCC(N)=O)NC(=O)C(C)(C)NC(=O)[C@@H](N)Cc1c[nH]cn1)[C@@H](C)O)[C@@H](C)O)C(=O)N[C@@H](CC(=O)O)C(=O)N[C@@H](C)C(=O)N[C@@H](CCCNC(=N)N)C(=O)N[C@@H](C)C(=O)N[C@@H](C)C(=O)N[C@@H](CCC(N)=O)C(=O)N[C@@H](CCCCNC(=O)COCCOCCNC(=O)COCCOCCNC(=O)CC[C@H](NC(=O)CCCCCCCCCCCCCCC(=O)O)C(=O)O)C(=O)N[C@@H](Cc1ccccc1)C(=O)N[C@H](C(=O)N[C@@H](CCC(N)=O)C(=O)N[C@@H](Cc1c[nH]c2ccccc12)C(=O)N[C@@H](CC(C)C)C(=O)N[C@@H](CC(C)C)C(=O)N[C@@H](CC(=O)O)C(=O)N[C@H](C(N)=O)[C@@H](C)O)C(C)C` [compound 18] (H-H[Aib]QGTFTSDYSKYLDARAAQK([AEEA-AEEA-γGlu-C16 diacid])FVQWLLDT-NH2), the EC50 on human GCGR was 0.07 nM; at human GLP1R, 0.03 nM. Also, the “hGCGR/hGLP1R (hTone)” value at human GCGR turned out to be 2.19.

As for `CC(C)C[C@H](NC(=O)[C@H](Cc1ccc(O)cc1)NC(=O)[C@H](CCCCN)NC(=O)[C@H](CO)NC(=O)[C@H](Cc1ccc(O)cc1)NC(=O)[C@H](CC(=O)O)NC(=O)[C@H](CO)NC(=O)[C@@H](NC(=O)[C@H](Cc1ccccc1)NC(=O)[C@@H](NC(=O)CNC(=O)[C@H](CCC(N)=O)NC(=O)C(C)(C)NC(=O)[C@@H](N)Cc1c[nH]cn1)[C@@H](C)O)[C@@H](C)O)C(=O)N[C@@H](CC(=O)O)C(=O)N[C@@H](C)C(=O)N[C@@H](CCCNC(=N)N)C(=O)N[C@@H](C)C(=O)N[C@@H](C)C(=O)N[C@@H](CCCCNC(=O)COCCOCCNC(=O)COCCOCCNC(=O)CC[C@H](NC(=O)CCCCCCCCCCCCCCC(=O)O)C(=O)O)C(=O)N[C@@H](CC(=O)O)C(=O)N[C@@H](Cc1ccccc1)C(=O)N[C@H](C(=O)N[C@@H](CCC(N)=O)C(=O)N[C@@H](Cc1c[nH]c2ccccc12)C(=O)N[C@@](C)(CC(C)C)C(=O)N[C@@H](CCS(C)(=O)=O)C(=O)N[C@@H](CC(=O)O)C(=O)N[C@H](C(N)=O)[C@@H](C)O)C(C)C` [compound 40] (H-H[Aib]QGTFTSDYSKYLDARAAK([AEEA-AEEA-γGlu-C16 diacid])DFVQW[αMeL][Met(O2)]DT-NH2), at human GCGR, the EC50 is 0.65 nM and the “hGCGR/hGLP1R (hTone)” value worked out at 10.39. For the same compound, at human GLP1R, the EC50 amounted to 0.06 nM.

Consider `CC(C)C[C@H](NC(=O)[C@H](Cc1ccc(O)cc1)NC(=O)[C@H](CCCCN)NC(=O)[C@H](CO)NC(=O)[C@H](Cc1ccc(O)cc1)NC(=O)[C@H](CC(=O)O)NC(=O)[C@H](CO)NC(=O)[C@@H](NC(=O)[C@H](Cc1ccccc1)NC(=O)[C@@H](NC(=O)CNC(=O)[C@H](CCC(N)=O)NC(=O)C(C)(C)NC(=O)[C@@H](N)Cc1c[nH]cn1)[C@@H](C)O)[C@@H](C)O)C(=O)N[C@@H](CC(=O)O)C(=O)N[C@@H](C)C(=O)N[C@@H](CCCNC(=N)N)C(=O)N[C@@H](C)C(=O)N[C@@H](C)C(=O)N[C@@H](CCCCNC(=O)COCCOCCNC(=O)COCCOCCNC(=O)CC[C@H](NC(=O)CCCCCCCCCCCCCCC(=O)O)C(=O)O)C(=O)N[C@@H](CC(=O)O)C(=O)N[C@@H](Cc1ccccc1)C(=O)N[C@H](C(=O)N[C@@H](CCC(N)=O)C(=O)N[C@@H](Cc1c[nH]c2ccccc12)C(=O)N[C@@H](CC(C)C)C(=O)N[C@@H](CCS(C)(=O)=O)C(=O)N[C@@](C)(CC(=O)O)C(=O)N[C@H](C(N)=O)[C@@H](C)O)C(C)C` [compound 41] (H-H[Aib]QGTFTSDYSKYLDARAAK([AEEA-AEEA-γGlu-C16 diacid])DFVQWL[Met(O2)][αMeD]T-NH2), for which the concentration giving a half-maximal response (EC50) at human GCGR is 0.05 nM; on human GLP1R, 0.02 nM. Moreover, the “hGCGR/hGLP1R (hTone)” value at human GCGR stood at 3.13.

Take `CC(C)C[C@H](NC(=O)[C@H](Cc1ccc(O)cc1)NC(=O)[C@H](CCCCN)NC(=O)[C@H](CO)NC(=O)[C@H](Cc1ccc(O)cc1)NC(=O)[C@H](CC(=O)O)NC(=O)[C@H](CO)NC(=O)[C@@H](NC(=O)[C@H](Cc1ccccc1)NC(=O)[C@@H](NC(=O)CNC(=O)[C@H](CCC(N)=O)NC(=O)C(C)(C)NC(=O)[C@@H](N)Cc1c[nH]cn1)[C@@H](C)O)[C@@H](C)O)C(=O)N[C@@H](CC(=O)O)C(=O)N[C@@H](C)C(=O)N[C@@H](CCCNC(=N)N)C(=O)N[C@@H](C)C(=O)N[C@@H](C)C(=O)N[C@@H](CCC(N)=O)C(=O)N[C@@H](CCCCNC(=O)COCCOCCNC(=O)COCCOCCNC(=O)CC[C@H](NC(=O)CCCCCCCCCCCCCCCCC(=O)O)C(=O)O)C(=O)N[C@@H](Cc1ccccc1)C(=O)N[C@H](C(=O)N[C@@H](CCC(N)=O)C(=O)N[C@@H](Cc1c[nH]c2ccccc12)C(=O)N[C@@H](CC(C)C)C(=O)N[C@@H](CCS(C)(=O)=O)C(=O)N[C@@](C)(CC(=O)O)C(=O)N[C@H](C(N)=O)[C@@H](C)O)C(C)C` [compound 71] (H-H[Aib]QGTFTSDYSKYLDARAAQK([AEEA-AEEA-γGlu-C18 diacid])FVQWL[Met(O2)][αMeD]T-NH2): at human GCGR, the EC50 was 0.13 nM and the “hGCGR/hGLP1R (hTone)” value stood at 1. The compound also yielded a 50% effective concentration (EC50) at human GLP1R of 0.17 nM.

As a reminder, the EC50 is the concentration at which the effect is half-maximal.

For the origin of these results see patent US11492385B2, “Long-acting co-agonists of the glucagon and GLP-1 receptors” (Merck Sharp & Dohme Corp., priority 2015, dated 2022).
